# Target: serotonin transporter (hSERT) (Homo sapiens, UniProt P31645)
# Experiment: fluorometric uptake
# Type: cell-based
# serotonin transporter (hSERT), sequence (P31645 whole entry): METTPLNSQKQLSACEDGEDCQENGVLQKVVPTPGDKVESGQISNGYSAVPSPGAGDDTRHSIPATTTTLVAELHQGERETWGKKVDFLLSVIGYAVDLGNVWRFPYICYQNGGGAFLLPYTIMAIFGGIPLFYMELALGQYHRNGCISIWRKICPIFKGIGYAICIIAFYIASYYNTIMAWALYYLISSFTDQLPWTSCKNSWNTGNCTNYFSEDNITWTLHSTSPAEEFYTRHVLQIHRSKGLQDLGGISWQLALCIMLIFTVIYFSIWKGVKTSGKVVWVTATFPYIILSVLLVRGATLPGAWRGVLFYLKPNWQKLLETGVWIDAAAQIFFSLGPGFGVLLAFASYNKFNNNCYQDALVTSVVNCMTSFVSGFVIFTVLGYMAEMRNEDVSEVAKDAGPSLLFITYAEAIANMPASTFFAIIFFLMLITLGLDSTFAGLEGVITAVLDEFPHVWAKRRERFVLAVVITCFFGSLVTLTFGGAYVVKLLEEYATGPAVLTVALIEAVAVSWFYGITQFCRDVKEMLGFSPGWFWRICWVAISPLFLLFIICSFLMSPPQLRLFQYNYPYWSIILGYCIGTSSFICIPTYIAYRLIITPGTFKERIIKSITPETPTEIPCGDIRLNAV
smiles,measurement,value
NCCc1ccc2[nH]c3ccccc3c(=O)c2c1 [FFN54],fluorometric uptake (5 μM) in hSERT-HEK cells with and without imipramine; S/B =,FFN54 showed hSERT-dependent cell uptake in a multi-well fluorometric assay using hSERT-transfected human kidney cells

# Reference: article PMC6342556 (ACS chemical neuroscience, 2018)
